# Source: patent US11807835B2, “Detergent compositions containing a stabilized enzyme by phosphonates” (ECOLAB USA INC., priority 2016, dated 2023)
# Tested on: protease
# Assay: Protease activity retention in detergent use solution (4000 ppm, 5 GPG water; peptidyl substrate, glycine buffer pH 9.0)
# Assay type: biochemical
# Conditions: for Relative Protease Enzyme Activity: use solution at 120° F.
# Description: The enzyme activities in the detergents with different phosphonate levels were tested at 4000 ppm in 5 grains per gallon (GPG) water at 120° F. with various time points collected up to 4 hours, after a use solution was generated from the detergent composition. During the tests, the samples at different time points were collected and immediately frozen in an acetone/dry ice bath and stored in −80° C. before the activity of the enzyme was evaluated. For the use of such an assay, t=0 min was the reference point for 100% enzyme activity.
# Assays of enzyme activity in formulations (% retention) were conducted to simulate a presoak condition in a beaker using the chemistry, temperature, and pH conditions relevant to manual warewash or presoak applications. Enzyme activity is an indicator of the stability of the enzyme in the detergent, specifically in an aqueous use solution within a sump (which is under conditions of high pH, temperature and dilution).
# The analysis by protease assay was conducted as follows. For the assays, a detergent composition was used to generate an aqueous use solution evaluated herein.
# Enzyme activity under presoak or manual warewash conditions was traced quantitatively using a standard protease assay. Samples were prepared under bench top conditions, whereby the use solution from a detergent composition or detergent was obtained and maintained at a presoak or manual warewash temperature in a stirring water bath. After the time course for assessing enzyme stability is initiated, aliquots were taken at various time points and flash-frozen. A time=0 sample was prepared for each series by dissolving the detergent formulation at room temperature, mixing thoroughly, and flash freezing. Samples were thawed and diluted as necessary in an assay buffer usually for use in the protease assay. A glycine buffer at pH 9.0 is used here. The assay monitored the direct reaction of the protease on a small, commercially available peptidyl substrate, with liberation of the product providing correlation to the active enzyme content. The product was detected using a plate reader with an appreciable dynamic range (upper absorbance limit of the instrument >3.5). Enzyme activity levels were assessed relative to a calibration curve with average values for replicate tests used to map protease stability under presoak or manual warewash use conditions. Enzyme retention at each time point was calculated as the % enzyme activity relative to the time=0 sample.
# [1] = base formula, phosphonate 0.6 wt-%, time 0 min
# [2] = base formula, phosphonate 0.6 wt-%, time 5 min
# [3] = base formula, phosphonate 0.6 wt-%, time 10 min
# [4] = base formula, phosphonate 0.6 wt-%, time 20 min
# [5] = base formula, phosphonate 0.6 wt-%, time 40 min
# [6] = base formula, phosphonate 0.6 wt-%, time 60 min
# [7] = base formula, phosphonate 0.6 wt-%, time 90 min
# [8] = base formula, phosphonate 0.6 wt-%, time 120 min
# [9] = base formula, phosphonate 0.6 wt-%, time 150 min
# [10] = base formula, phosphonate 0.6 wt-%, time 180 min
# [11] = base formula, phosphonate 0.6 wt-%, time 210 min
# [12] = base formula, phosphonate 0.6 wt-%, time 240 min
# [13] = base formula, phosphonate at 0.1% elemental phosphorus, time 0 min
# [14] = base formula, phosphonate at 0.1% elemental phosphorus, time 5 min
# [15] = base formula, phosphonate at 0.1% elemental phosphorus, time 10 min
# [16] = base formula, phosphonate at 0.1% elemental phosphorus, time 20 min
# [17] = base formula, phosphonate at 0.1% elemental phosphorus, time 40 min
# [18] = base formula, phosphonate at 0.1% elemental phosphorus, time 60 min
# [19] = base formula, phosphonate at 0.1% elemental phosphorus, time 90 min
# [20] = base formula, phosphonate at 0.1% elemental phosphorus, time 120 min
# [21] = base formula, phosphonate at 0.1% elemental phosphorus, time 150 min
# [22] = base formula, phosphonate at 0.1% elemental phosphorus, time 180 min
# [23] = base formula, phosphonate at 0.1% elemental phosphorus, time 210 min
# [24] = base formula, phosphonate at 0.1% elemental phosphorus, time 240 min
compound,measurement,setting,value
"CC(O)(P(=O)(O)O)P(=O)(O)O [HEDP, 1-hydroxy ethylidene-1,1-diphosphonic acid]",Relative Protease Enzyme Activity,"All Ash formula, phosphonate 0.3 wt-%, time 0 min",100.00%
same,Relative Protease Enzyme Activity,"All Ash formula, phosphonate 0.3 wt-%, time 5 min",8.63%
same,Relative Protease Enzyme Activity,"All Ash formula, phosphonate 0.3 wt-%, time 10 min",3.25%
same,Relative Protease Enzyme Activity,"All Ash formula, phosphonate 0.3 wt-%, time 20 min",0.61%
same,Relative Protease Enzyme Activity,"All Ash formula, phosphonate 0.3 wt-%, time 40 min",−1.32%
same,Relative Protease Enzyme Activity,"All Ash formula, phosphonate 0.3 wt-%, time 60 min",−1.66%
same,Relative Protease Enzyme Activity,"All Ash formula, phosphonate 0.3 wt-%, time 90 min",−0.97%
same,Relative Protease Enzyme Activity,"All Ash formula, phosphonate 0.3 wt-%, time 120 min",−1.23%
same,Relative Protease Enzyme Activity,"All Ash formula, phosphonate 0.3 wt-%, time 150 min",−0.85%
same,Relative Protease Enzyme Activity,"All Ash formula, phosphonate 0.3 wt-%, time 180 min",−0.93%
same,Relative Protease Enzyme Activity,"All Ash formula, phosphonate 0.3 wt-%, time 210 min",−0.42%
same,Relative Protease Enzyme Activity,"All Ash formula, phosphonate 0.3 wt-%, time 240 min",−0.42%
same,Relative Protease Enzyme Activity,"base formula, phosphonate 0.3 wt-%, time 0 min",100.00%
same,Relative Protease Enzyme Activity,"base formula, phosphonate 0.3 wt-%, time 5 min",52.21%
same,Relative Protease Enzyme Activity,"base formula, phosphonate 0.3 wt-%, time 10 min",32.95%
same,Relative Protease Enzyme Activity,"base formula, phosphonate 0.3 wt-%, time 20 min",15.91%
same,Relative Protease Enzyme Activity,"base formula, phosphonate 0.3 wt-%, time 40 min",8.68%
same,Relative Protease Enzyme Activity,"base formula, phosphonate 0.3 wt-%, time 60 min",5.52%
same,Relative Protease Enzyme Activity,"base formula, phosphonate 0.3 wt-%, time 90 min",4.10%
same,Relative Protease Enzyme Activity,"base formula, phosphonate 0.3 wt-%, time 120 min",3.10%
same,Relative Protease Enzyme Activity,"base formula, phosphonate 0.3 wt-%, time 150 min",2.39%
same,Relative Protease Enzyme Activity,"base formula, phosphonate 0.3 wt-%, time 180 min",1.65%
same,Relative Protease Enzyme Activity,"base formula, phosphonate 0.3 wt-%, time 210 min",1.36%
same,Relative Protease Enzyme Activity,"base formula, phosphonate 0.3 wt-%, time 240 min",1.20%
same,Relative Protease Enzyme Activity,[1],100.00%
same,Relative Protease Enzyme Activity,[2],69.69%
same,Relative Protease Enzyme Activity,[3],51.90%
same,Relative Protease Enzyme Activity,[4],27.67%
same,Relative Protease Enzyme Activity,[5],12.41%
same,Relative Protease Enzyme Activity,[6],7.62%
same,Relative Protease Enzyme Activity,[7],4.70%
same,Relative Protease Enzyme Activity,[8],2.94%
same,Relative Protease Enzyme Activity,[9],1.79%
same,Relative Protease Enzyme Activity,[10],0.92%
same,Relative Protease Enzyme Activity,[11],0.71%
same,Relative Protease Enzyme Activity,[12],0.45%
same,Relative Protease Enzyme Activity,[13],100.00%
same,Relative Protease Enzyme Activity,[14],77.74%
same,Relative Protease Enzyme Activity,[15],53.71%
same,Relative Protease Enzyme Activity,[16],23.58%
same,Relative Protease Enzyme Activity,[17],9.12%
same,Relative Protease Enzyme Activity,[18],5.36%
same,Relative Protease Enzyme Activity,[19],3.76%
same,Relative Protease Enzyme Activity,[20],2.44%
same,Relative Protease Enzyme Activity,[21],1.45%
same,Relative Protease Enzyme Activity,[22],0.74%
same,Relative Protease Enzyme Activity,[23],0.64%
same,Relative Protease Enzyme Activity,[24],0.45%
same,enzyme activity of amine salt of the phosphonate versus non-neutralized phosphonate,"phosphonate neutralized with an amine, such as triethanolamine",much improved enzyme activity
Monoethanolamine phosphonate [MEAP],Relative Protease Enzyme Activity,"base formula, phosphonate 0.3 wt-%, lower half of Table 4A, time 5",98.29%
same,Relative Protease Enzyme Activity,"base formula, phosphonate 0.3 wt-%, lower half of Table 4A, time 20",90.19%
same,Relative Protease Enzyme Activity,"base formula, phosphonate 0.3 wt-%, lower half of Table 4A, time 90",72.58%
same,Relative Protease Enzyme Activity,"base formula, phosphonate 0.3 wt-%, lower half of Table 4A, time 120",68.59%
same,Relative Protease Enzyme Activity,"base formula, phosphonate 0.3 wt-%, lower half of Table 4A, time 150, unit not given",63.56%
same,Relative Protease Enzyme Activity,"base formula, phosphonate 0.3 wt-%, lower half of Table 4A, time 210",60.60%
same,Relative Protease Enzyme Activity,"base formula, phosphonate 0.3 wt-%, lower half of Table 4A, time '0'",103.02%
same,Relative Protease Enzyme Activity,"base formula, phosphonate 0.3 wt-%, lower half of Table 4A, time '40'",82.48%
same,Relative Protease Enzyme Activity,"base formula, phosphonate 0.3 wt-%, lower half of Table 4A, time 'Blank'",100.00%
same,Relative Protease Enzyme Activity,"base formula, phosphonate 0.3 wt-%, lower half of Table 4A, time row printed '10'",96.59%
same,Relative Protease Enzyme Activity,"base formula, phosphonate 0.3 wt-%, lower half of Table 4A, time row printed '60'",79.14%
same,Relative Protease Enzyme Activity,"base formula, phosphonate 0.3 wt-%, lower half of Table 4A, time row printed '180'",58.70%
same,Relative Protease Enzyme Activity,[1],100.00%
same,Relative Protease Enzyme Activity,[2],106.85%
same,Relative Protease Enzyme Activity,[3],101.06%
same,Relative Protease Enzyme Activity,[4],104.08%
same,Relative Protease Enzyme Activity,[5],95.75%
same,Relative Protease Enzyme Activity,[6],95.13%
same,Relative Protease Enzyme Activity,[7],86.12%
same,Relative Protease Enzyme Activity,[8],85.48%
same,Relative Protease Enzyme Activity,[9],80.22%
same,Relative Protease Enzyme Activity,[10],82.71%
same,Relative Protease Enzyme Activity,[11],70.64%
same,Relative Protease Enzyme Activity,[12],72.77%
same,Relative Protease Enzyme Activity,[13],100.00%
same,Relative Protease Enzyme Activity,[14],119.22%
same,Relative Protease Enzyme Activity,[15],118.42%
same,Relative Protease Enzyme Activity,[16],113.68%
same,Relative Protease Enzyme Activity,[17],108.32%
same,Relative Protease Enzyme Activity,[18],105.97%
same,Relative Protease Enzyme Activity,[19],95.99%
same,Relative Protease Enzyme Activity,[20],91.30%
same,Relative Protease Enzyme Activity,[21],82.74%
same,Relative Protease Enzyme Activity,[22],81.94%
same,Relative Protease Enzyme Activity,[23],79.85%
same,Relative Protease Enzyme Activity,[24],75.73%
